Results: patent US8227612B2, “Quinoline compound and pharmaceutical composition, preparation method and uses thereof” (Shanghai Institute of Pharmaceutical Industry, priority 2008, dated 2012)

System: hyperlipidemia quail
Assay: Lipid-lowering in vivo experiments in hyperlipidemia quail
Details: for CHO / H/L / HDL-C / LDL-C / TG: oral, blood after four weeks hypercholesterol diet
Method: Lipid-lowering in vivo experiments are made in hyperlipidemia quail with the compounds [NT] according to the present invention. Atorvastatin (20 mg/kg) were used as the positive control. Two groups of dosage (Low: 5 mg/kg, High: 20 mg/kg) of the ten compounds of [NT] were tested. After one week feeding with normal diet, except for the normal control group, the model control group and the tested groups of quails were fed with hypercholesterol diet for four weeks, and then the blood was collected respectively for testing the content of […] including triglyceride, cholesterol, low density lipoprotein and high density lipoprotein.

[1] = oral administration, hyperlipidemia quail

SMILES: CC(C)Sc1ccc(-c2cc3c(-c4ccc(SC(C)C)cc4)c(/C=C/[C@@H](O)C[C@@H](O)CC(=O)O)cnc3c(-c3ccc(SC(C)C)cc3)c2-c2ccc(SC(C)C)cc2)cc1 [Compound A1, (3R,5S)-7-[4,6,7,8-tetra-(4-isopropylthiophenyl)quinoline-3-yl]-3,5-dihydroxy-6(E)-heptenoic acid]
- CHO (High: 20 mg/kg): 8.05 mmol/L
- H/L (High: 20 mg/kg): 1.54
- HDL-C (High: 20 mg/kg): 5.31 mmol/L
- LDL-C (High: 20 mg/kg): 3.63 mmol/L
- TG (High: 20 mg/kg): 0.51 mmol/L
- CHO (Low: 5 mg/kg): 8.72 mmol/L
- H/L (Low: 5 mg/kg): 1.91
- HDL-C (Low: 5 mg/kg): 5.84 mmol/L
- LDL-C (Low: 5 mg/kg): 3.99 mmol/L
- TG (Low: 5 mg/kg): 0.59 mmol/L
- lipid-lowering effect (in words) [1]: obvious lipid-lowering effect

SMILES: COc1cccc(Sc2cc3ncc(/C=C/[C@@H](O)C[C@@H](O)CC(=O)[O-])c(Sc4cccc(OC)c4)c3cc2F)c1.COc1cccc(Sc2cc3ncc(/C=C/[C@@H](O)C[C@@H](O)CC(=O)[O-])c(Sc4cccc(OC)c4)c3cc2F)c1.[Ca+2] [Compound A5]
- CHO (High: 20 mg/kg): 10.55 mmol/L
- H/L (High: 20 mg/kg): 1.06
- HDL-C (High: 20 mg/kg): 5.35 mmol/L
- LDL-C (High: 20 mg/kg): 6.40 mmol/L
- TG (High: 20 mg/kg): 0.58 mmol/L
- CHO (Low: 5 mg/kg): 9.66 mmol/L
- H/L (Low: 5 mg/kg): 1.29
- HDL-C (Low: 5 mg/kg): 5.35 mmol/L
- LDL-C (Low: 5 mg/kg): 5.07 mmol/L
- TG (Low: 5 mg/kg): 1.95 mmol/L
- lipid-lowering effect (in words) [1]: obvious lipid-lowering effect

SMILES: CC(C)c1c(C(=O)Nc2ccccc2)c(-c2ccccc2)c(-c2ccc(F)cc2)n1CC[C@@H](O)C[C@@H](O)CC(=O)O [Atorvastatin, reference compound]
- CHO (High: 20 mg/kg): 6.51 mmol/L
- H/L (High: 20 mg/kg): 2.19
- HDL-C (High: 20 mg/kg): 4.39 mmol/L
- LDL-C (High: 20 mg/kg): 2.51 mmol/L
- TG (High: 20 mg/kg): 0.76 mmol/L

SMILES: O=C([O-])C[C@H](O)C[C@H](O)/C=C/c1cnc2cc(Cl)c(F)cc2c1Oc1ccc(F)cc1.O=C([O-])C[C@H](O)C[C@H](O)/C=C/c1cnc2cc(Cl)c(F)cc2c1Oc1ccc(F)cc1.[Ca+2] [Compound A14, (3R,5S)-7-[6-fluoro-7-chloro-4-(4-fluorophenoxy)quinoline-3-yl]-3,5-dihydroxy-6(E)-heptenoic acid hemi calcium salt]
- CHO (High: 20 mg/kg): 7.61 mmol/L
- H/L (High: 20 mg/kg): 1.44
- HDL-C (High: 20 mg/kg): 4.66 mmol/L
- LDL-C (High: 20 mg/kg): 3.62 mmol/L
- TG (High: 20 mg/kg): 0.96 mmol/L
- CHO (Low: 5 mg/kg): 11.64 mmol/L
- H/L (Low: 5 mg/kg): 1.15
- HDL-C (Low: 5 mg/kg): 6.63 mmol/L
- LDL-C (Low: 5 mg/kg): 6.40 mmol/L
- TG (Low: 5 mg/kg): 0.74 mmol/L
- lipid-lowering effect (in words) [1]: obvious lipid-lowering effect

SMILES: O=C([O-])C[C@H](O)C[C@H](O)/C=C/c1cnc2c(Oc3ccccc3)c(Oc3ccccc3)c(Oc3ccccc3)cc2c1Oc1ccccc1.O=C([O-])C[C@H](O)C[C@H](O)/C=C/c1cnc2c(Oc3ccccc3)c(Oc3ccccc3)c(Oc3ccccc3)cc2c1Oc1ccccc1.[Ca+2] [Compound A9, (3R,5S)-7-[4,6,7,8-tetra-phenoxyquinoline-3-yl]-3,5-dihydroxy-6(E)-heptenoic acid hemi calcium salt]
- CHO (High: 20 mg/kg): 9.18 mmol/L
- H/L (High: 20 mg/kg): 1.54
- HDL-C (High: 20 mg/kg): 4.98 mmol/L
- LDL-C (High: 20 mg/kg): 4.08 mmol/L
- TG (High: 20 mg/kg): 1.26 mmol/L
- CHO (Low: 5 mg/kg): 9.75 mmol/L
- H/L (Low: 5 mg/kg): 1.56
- HDL-C (Low: 5 mg/kg): 4.98 mmol/L
- LDL-C (Low: 5 mg/kg): 5.16 mmol/L
- TG (Low: 5 mg/kg): 1.24 mmol/L
- lipid-lowering effect (in words) [1]: obvious lipid-lowering effect

SMILES: CC(C)c1ccc(Sc2cc3ncc(/C=C/[C@@H](O)C[C@@H](O)CC(=O)[O-])c(Sc4ccc(C(C)C)cc4)c3cc2F)cc1.CC(C)c1ccc(Sc2cc3ncc(/C=C/[C@@H](O)C[C@@H](O)CC(=O)[O-])c(Sc4ccc(C(C)C)cc4)c3cc2F)cc1.[Ca+2] [Compound A13]
- CHO (High: 20 mg/kg): 8.88 mmol/L
- H/L (High: 20 mg/kg): 1.79
- HDL-C (High: 20 mg/kg): 5.64 mmol/L
- LDL-C (High: 20 mg/kg): 3.95 mmol/L
- TG (High: 20 mg/kg): 0.35 mmol/L
- CHO (Low: 5 mg/kg): 14.13 mmol/L
- H/L (Low: 5 mg/kg): 0.92
- HDL-C (Low: 5 mg/kg): 6.93 mmol/L
- LDL-C (Low: 5 mg/kg): 9.23 mmol/L
- TG (Low: 5 mg/kg): 0.56 mmol/L
- lipid-lowering effect (in words) [1]: obvious lipid-lowering effect
- way of reducing lipidemia (in words) [1]: reduces lipidemia by lowering TG and increasing H/L ratio

SMILES: COc1cccc(Sc2c(/C=C/[C@@H](O)C[C@@H](O)CC(=O)[O-])cnc3cc(Cl)c(F)cc23)c1.COc1cccc(Sc2c(/C=C/[C@@H](O)C[C@@H](O)CC(=O)[O-])cnc3cc(Cl)c(F)cc23)c1.[Ca+2] [Compound A11]
- CHO (High: 20 mg/kg): 8.53 mmol/L
- H/L (High: 20 mg/kg): 1.33
- HDL-C (High: 20 mg/kg): 5.06 mmol/L
- LDL-C (High: 20 mg/kg): 4.30 mmol/L
- TG (High: 20 mg/kg): 0.42 mmol/L
- CHO (Low: 5 mg/kg): 11.63 mmol/L
- H/L (Low: 5 mg/kg): 1.24
- HDL-C (Low: 5 mg/kg): 6.32 mmol/L
- LDL-C (Low: 5 mg/kg): 6.51 mmol/L
- TG (Low: 5 mg/kg): 0.56 mmol/L
- lipid-lowering effect (in words) [1]: obvious lipid-lowering effect

SMILES: O=C([O-])C[C@H](O)C[C@H](O)/C=C/c1cnc2c(F)c(Oc3ccccc3)c(F)cc2c1Oc1ccccc1.O=C([O-])C[C@H](O)C[C@H](O)/C=C/c1cnc2c(F)c(Oc3ccccc3)c(F)cc2c1Oc1ccccc1.[Ca+2] [Compound A12, (3R,5S)-7-[6,8-difluoro-4,7-di-(phenoxy)quinoline-3-yl]-3,5-dihydroxy-6(E)-heptenoic acid hemi calcium salt]
- CHO (High: 20 mg/kg): 6.25 mmol/L
- H/L (High: 20 mg/kg): 2.11
- HDL-C (High: 20 mg/kg): 3.77 mmol/L
- LDL-C (High: 20 mg/kg): 2.52 mmol/L
- TG (High: 20 mg/kg): 0.97 mmol/L
- CHO (Low: 5 mg/kg): 12.40 mmol/L
- H/L (Low: 5 mg/kg): 1.43
- HDL-C (Low: 5 mg/kg): 6.21 mmol/L
- LDL-C (Low: 5 mg/kg): 6.75 mmol/L
- TG (Low: 5 mg/kg): 0.54 mmol/L
- lipid-lowering effect (in words) [1]: obvious lipid-lowering effect

SMILES: CC(C)Sc1ccc(-c2c(/C=C/[C@@H](O)C[C@@H](O)CC(=O)[O-])cnc3c(F)c(F)c(F)cc23)cc1.CC(C)Sc1ccc(-c2c(/C=C/[C@@H](O)C[C@@H](O)CC(=O)[O-])cnc3c(F)c(F)c(F)cc23)cc1.[Ca+2] [Compound A6, (3R,5S)-7-[6,7,8-trifluoro-4-(4-isopropylthiophenyl)quinoline-3-yl]-3,5-dihydroxy-6(E)-heptenoic acid hemi calcium salt]
- CHO (High: 20 mg/kg): 8.66 mmol/L
- H/L (High: 20 mg/kg): 1.37
- HDL-C (High: 20 mg/kg): 4.74 mmol/L
- LDL-C (High: 20 mg/kg): 3.66 mmol/L
- TG (High: 20 mg/kg): 4.47 mmol/L
- CHO (Low: 5 mg/kg): 8.65 mmol/L
- H/L (Low: 5 mg/kg): 1.21
- HDL-C (Low: 5 mg/kg): 4.89 mmol/L
- LDL-C (Low: 5 mg/kg): 4.61 mmol/L
- TG (Low: 5 mg/kg): 0.70 mmol/L
- lipid-lowering effect (in words) [1]: obvious lipid-lowering effect

SMILES: O=C([O-])C[C@H](O)C[C@H](O)/C=C/c1cnc2c(F)c(F)c(F)cc2c1Sc1ccc(F)cc1.O=C([O-])C[C@H](O)C[C@H](O)/C=C/c1cnc2c(F)c(F)c(F)cc2c1Sc1ccc(F)cc1.[Ca+2] [Compound A8]
- CHO (High: 20 mg/kg): 5.57 mmol/L
- H/L (High: 20 mg/kg): 2.21
- HDL-C (High: 20 mg/kg): 3.73 mmol/L
- LDL-C (High: 20 mg/kg): 1.94 mmol/L
- TG (High: 20 mg/kg): 0.45 mmol/L
- CHO (Low: 5 mg/kg): 9.11 mmol/L
- H/L (Low: 5 mg/kg): 1.58
- HDL-C (Low: 5 mg/kg): 4.75 mmol/L
- LDL-C (Low: 5 mg/kg): 3.46 mmol/L
- TG (Low: 5 mg/kg): 1.50 mmol/L
- lipid-lowering effect (in words) [1]: obvious lipid-lowering effect
